{"source": "patent US7858657B2", "about": "(Proix Pharmaceutical Corp., priority 2004, dated 2010)", "key": {"[1]": {"tested_on": "HT-29 xenograft phosphor-Akt", "assay": "Inhibition of HT-29 xenograft phospho-Akt by wortmannin analogs (pharmacodynamics)", "type": "in vivo", "procedure": "The pharmacodynamics of various wortmannin analogs were tested. […] PX-866 was administered intraperitoneal, intravenously and orally."}, "A-549 lung": {"tested_on": "A-549 lung", "assay": "Antitumor activity of cytotoxic drugs alone or combined with PX-866, A-549 lung (Table 2)", "type": "in vivo"}, "[2]": {"tested_on": "A-549 human nsc lung cancer xenografts", "assay": "Antitumor studies, PX-866 and gefitinib in A-549 xenografts", "type": "in vivo, scid mice", "conditions": "for Tumor T/C %, PX-844 4 hrs before gefitinib / Tumor T/C %: 100 mm3 tumors; for Tumor T/C %: end of dosing period", "procedure": "Antitumor Studies. […] When the tumors reached 100 or 600 mm3 the mice were stratified into groups of 8 animals having approximately equal mean tumor volumes and drug administration was started. […] Animals were weighed weekly and tumor diameters were measured twice weekly at right angles (d short and d long) with electronic calipers and tumor volumes calculated by the formula volume=(dshort)2×(dlong))2. When the tumor reached 2,000 mm3 or more, or became necrotic the animals were euthanized.\nIn vivo antitumor studies. […] Tumors were allowed to grow to a mean volume of […] before drug treatment was started every other day for 14 doses. Antitumor activity is expressed as the % volume of the treated tumor/control tumor (T/C %) at the end of the dosing period. There were 8 mice in each group and all differences are p<0.01."}, "[3]": {"tested_on": "tumor phospho-Akt (A-549 tumor xenografts)", "assay": "Pharmacodynamic studies, tumor phospho-Akt in A-549 xenografts", "type": "in vivo, scid mice", "from_the_text": "Pharmacodynamic Studies. […] Tumor Akt activity was expressed as the ratio of phospho-Ser473-Akt to total Akt."}, "[4]": {"tested_on": "tumor phospho-EGFR (A-549 tumor xenografts)", "type": "in vivo, scid mice"}, "[5]": {"assay": "Toxicity of long term PX-866 administration, scid mice", "type": "in vivo", "conditions": "for ALT: 24 hr after last dose, mean of 4 mice ± SE; for gain in body weight as % of the control weight gain: over the 4 weeks of treatment", "procedure": "(§1) Toxicity Studies. […] The mice were killed 24 hr after the last dose and changes in body weight, blood lymphocyte, neutrophil, red blood cell, platelet counts, serum glucose, aspartate amino transferase (AST), and amino alanine transferase (ALT) were measured.\nValues are the mean of 4 mice per group±SE."}, "[6]": {"assay": "Toxicity studies, blood counts in C57B1/6 mice", "type": "in vivo", "conditions": "PX-866 3 mg/kg po every other day for 15 doses", "procedure": "as §1"}, "[7]": {"assay": "Nonfasting glucose levels after long term PX-866", "type": "in vivo, mice", "conditions": "PX-866 9 mg/kg iv every other day for 15 doses; ±S.E., n=4"}, "HT-29 colon cancer": {"tested_on": "HT-29 colon cancer", "assay": "Antitumor activity of PX-866 with gefitinib in HT-29 colon cancer", "type": "in vivo", "conditions": "PX-866 2 mg/kg orally 4 hours prior to gefitinib 75 mg/kg po (FIG. 13)"}, "[8]": {"tested_on": "A-673 thabdomyosarcom xenografts", "assay": "Antitumor effect of PX-866 with bevacizumab, A-673 xenografts", "type": "in vivo", "conditions": "PX-866 intravenously or orally every three days in combination with bevacizumab (FIG. 14)", "procedure": "PX-866 was administered at varying doses intravenously or orally every three days alone or in combination with bevacizumab."}, "[9]": {"conditions": "PX-866 ip 6 mg/kg QD × 5 combined with cisplatin ip 1 mg/kg QD × 5"}, "[10]": {"conditions": "size 300 mm^3, PX-866 ip 6 mg/kg QD × 5"}, "[11]": {"conditions": "combination of gefitinib and PX-866"}, "[12]": {"conditions": "PX-866 1.5 mg/kg po every other day for 14 doses, mean ± SE"}, "[13]": {"conditions": "PX-866 3 mg/kg po every other day for 14 doses, mean ± SE"}, "[14]": {"conditions": "PX-866 10 mg/kg iv every other day for 14 doses, mean ± SE"}}, "note": "Where “and” joins values, the source holds several entries; their conditions need not be identical. Equal entries are not always repeated. Where two headings read alike, the source gives them in different places.", "data": [{"smiles": "C=CCN(/C=C1/C(=O)O[C@H](COC)[C@@]2(C)C1=C(O)C(=O)C1=C2[C@H](OC(C)=O)C[C@]2(C)C(=O)CC[C@@H]12)CC=C", "note": "[PX-866]", "values": [{"measurement": "inhibition of HT-29 xenograft phosphor-Akt", "setting": "[1]; dose dependency, PX-866, PX-867 and PX-881 compared (FIG. 1A)", "value": "greatest inhibitory activity"}, {"measurement": "inhibition of HT-29 xenograft phosphor-Akt over time by route", "setting": "[1]; oral compared with intraperitoneal and intravenous (FIG. 1B)", "value": "more consistent inhibition over a longer period of time"}, {"measurement": "Combined Growth delay days", "setting": "A-549 lung; [9]", "value": 10, "unit": "days"}, {"measurement": "Combined TGI %", "setting": "A-549 lung; [9]", "value": 58, "unit": "%"}, {"measurement": "Combined log cell kill", "setting": "A-549 lung; [9]", "value": 1.0}, {"measurement": "Alone Growth delay days", "setting": "A-549 lung; [10]", "value": 3, "unit": "days"}, {"measurement": "Alone TGI %", "setting": "A-549 lung; [10]", "value": 27, "unit": "%"}, {"measurement": "Alone log cell kill", "setting": "A-549 lung; [10]", "value": 0.30}, {"measurement": "Tumor T/C %, PX-844 4 hrs before gefitinib", "setting": "[2]; PX-866 IV 4 mg/kg QOD × 14, 4 hr before gefitinib 75 mg/kg po", "value": 20.5, "unit": "%"}, {"measurement": "Tumor T/C %", "setting": "[2]; PX-866 IV 4 mg/kg QOD × 14 alone", "value": 65.3, "unit": "%"}, {"measurement": "Tumor T/C %, PX-844 4 hrs before gefitinib", "setting": "[2]; PX-866 IV 9 mg/kg QOD × 14, 4 hr before gefitinib 75 mg/kg po", "value": "22% and 22.3%"}, {"measurement": "Tumor T/C %", "setting": "[2]; PX-866 IV 9 mg/kg QOD × 14 alone, 9 mg/kg", "value": "31% and 31.5%"}, {"measurement": "Tumor T/C %, PX-844 4 hrs before gefitinib", "setting": "[2]; PX-866 PO 1 mg/kg QOD × 14, 4 hr before gefitinib 75 mg/kg po", "value": 40.8, "unit": "%"}, {"measurement": "Tumor T/C %", "setting": "[2]; PX-866 PO 1 mg/kg QOD × 14 alone", "value": 54.8, "unit": "%"}, {"measurement": "Tumor T/C %, PX-844 4 hrs before gefitinib", "setting": "[2]; PX-866 PO 2.5 mg/kg QOD × 14, 4 hr before gefitinib 75 mg/kg po", "value": "18% and 18.1%"}, {"measurement": "Tumor T/C %", "setting": "[2]; PX-866 PO 2.5 mg/kg QOD × 14 alone, 2.5 mg/kg", "value": "41% and 40.8%"}, {"measurement": "combination antitumor activity, large tumors", "setting": "[2]; PX-866 with gefitinib, 600 mm3 A-549 tumor xenografts (FIG. 7B)", "value": "Increased combination antitumor activity"}, {"measurement": "tumor T/Cs", "setting": "[2]; administered long term, single agent (discussion)", "value": "around 50%"}, {"measurement": "activity of combination with gefitinib by timing", "setting": "[2]; alternating day schedule, preliminary studies, data not shown", "value": "more active when administered 4 hr before rather than 24 hr after gefitinib"}, {"measurement": "inhibition at 12 mg/kg", "setting": "[3]; Mus musculus, A549, iv, 120 h, read-out: inhibition of tumor phospho-Akt", "value": 51, "unit": "%"}, {"measurement": "inhibition at 3 mg/kg", "setting": "[3]; Mus musculus, A549, po, 120 h, read-out: inhibition of tumor phospho-Akt", "value": 48, "unit": "%"}, {"measurement": "effect upon tumor phospho-Akt", "setting": "[3]; [11]", "value": "inhibited both"}, {"measurement": "effect upon tumor phospho-EGFR", "setting": "[4]; PX-866 3 mg/kg po every other day for 5 days", "value": "no significant effect"}, {"measurement": "effect upon tumor phospho-EGFR", "setting": "[4]; PX-866 12 mg/kg iv every other day for 5 days", "value": "no significant effect"}, {"measurement": "effect upon tumor phospho-EGFR", "setting": "[4]; [11]", "value": "inhibited both"}, {"measurement": "ALT", "setting": "[5]; PX-866 1.5 mg/kg po every other day for 14 doses", "value": "65.6 ± 27.5", "unit": "U/l"}, {"measurement": "AST", "setting": "[5]; [12]", "value": "140.5 ± 35.2", "unit": "U/l"}, {"measurement": "Hb", "setting": "[5]; [12]", "value": "14.6 ± 0.3", "unit": "g/dL"}, {"measurement": "Weight change", "setting": "[5]; [12]", "value": "3.9 ± 0.6", "unit": "g"}, {"measurement": "ALT", "setting": "[5]; PX-866 3 mg/kg po every other day for 14 doses", "value": "47.6 ± 16.8", "unit": "U/l"}, {"measurement": "AST", "setting": "[5]; [13]", "value": "152.0 ± 47.2", "unit": "U/l"}, {"measurement": "Hb", "setting": "[5]; [13]", "value": "14.7 ± 0.4", "unit": "g/dL"}, {"measurement": "LY", "setting": "[5]; [13]", "value": "5.2 ± 3.9", "unit": "K/μl"}, {"measurement": "MO", "setting": "[5]; [13]", "value": "9.2 ± 3.6", "unit": "K/μl"}, {"measurement": "Plt", "setting": "[5]; [13]", "value": "1665 ± 227", "unit": "K/μl"}, {"measurement": "gain in body weight as % of the control weight gain", "setting": "[5]; PX-866 3 mg/kg po", "value": 28, "unit": "%"}, {"measurement": "ALT", "setting": "[5]; PX-866 10 mg/kg iv every other day for 14 doses", "value": "35.5 ± 11.7", "unit": "U/l"}, {"measurement": "AST", "setting": "[5]; [14]", "value": "105.2 ± 19.2", "unit": "U/l"}, {"measurement": "Hb", "setting": "[5]; [14]", "value": "14.4 ± 0.1", "unit": "g/dL"}, {"measurement": "LY", "setting": "[5]; [14]", "value": "1.8 ± 0.5", "unit": "K/μl"}, {"measurement": "MO", "setting": "[5]; [14]", "value": "1.1 ± 0.2", "unit": "K/μl"}, {"measurement": "Ne", "setting": "[5]; [14]", "value": "14.0 ± 2.7", "unit": "K/μl"}, {"measurement": "Plt", "setting": "[5]; [14]", "value": "1390 ± 43", "unit": "K/μl"}, {"measurement": "WBC", "setting": "[5]; [14]", "value": "14.6 ± 4.2", "unit": "K/μl"}, {"measurement": "glucose", "setting": "[5]; [14]", "value": "76.2 ± 3.6", "unit": "mg/dL"}, {"measurement": "gain in body weight as % of the control weight gain", "setting": "[5]; PX-866 10 mg/kg iv", "value": 83, "unit": "%"}, {"measurement": "time for changes in body weight, plasma glucose and blood cell counts to return to normal after treatment stopped", "setting": "[5]; scid mice, long term PX-866", "value": "≤ 9", "unit": "days"}, {"measurement": "change in any other blood elements", "setting": "[6]", "value": "no significant change"}, {"measurement": "neutrophil counts", "setting": "[6]; ±S.E., n=4", "value": "3.7±1.8 K/:l"}, {"measurement": "nonfasting glucose levels", "setting": "[7]", "value": "269.4 ± 27.8", "unit": "mg/dL"}, {"measurement": "antitumor effect with gefitinib", "setting": "HT-29 colon cancer", "value": "increased the antitumor effect of gefitinib"}, {"measurement": "antitumor activity with bevacizumab", "setting": "[8]", "value": "significantly increased the antitumor activity of bevacizumab"}]}]}
